According to patent EP0018134B1, “Dihydropyridine derivatives, processes for their preparation and pharmaceutical compositions containing them” (BEECHAM GROUP PLC, priority 1979, dated 1980):

test system: Fasted Mice; assay: Activity on Glucose Tolerance in Fasted Mice; assay type: in vivo; settings: mice fasted 24 hours, 8 per group; dose 0.2 mmol/kg body weight orally in 1% aqueous carboxymethyl cellulose; glucose 1 g/kg sub-cutaneous 30 minutes later; vehicle control (dose 0) value in the row above; asterisks = significance vs controls
Description: For this assay mice were fasted for 24 hours before the experiment and then randomised so that each treatment group contained 8 mice. The compounds were dosed orally in 1% aqueous carboxymethyl cellulose (10 ml/kg body weight), and 30 minutes later glucose (1 g/kg) was administered by the sub-cutaneous route. Blood samples for glucose analysis were taken from the tail 60 minutes after glucose administration; the results are shown in the table below.
A standard system for indicating the significance of results with respect to the controls (dose = zero mmol/kg) which received the 1% aqueous carboxymethyl cellulose vehicle only, is as follows: • ** P < 0.05 • *** P < 0.01 • **** P < 0.001
In the following Table, column A represents the dose of compound (mmol/kg body weight) and column B represents the blood glucose concentration (mmol/litre) 60 minutes after sub-cutaneous glucose load.

| Compound | blood glucose concentration (mmol/litre) 60 minutes after sub-cutaneous glucose load |
| --- | --- |
| Cc1ccn(C)c(=NC(=Nc2ccccc2)N2CCOCC2)c1.I [Example 11, N-(1,2-dihydro-1,4-dimethyl-2-pyridylidene)-N'-phenyl-4-morpholinecarboxamidine hydroiodide] | 4.47 ** mmol/litre |
| Cn1ccccc1=NC(=Nc1ccccc1)NCc1ccccc1 [Example 4, N-benzyl-N'-(1,2-dihydro-1-methyl-2-pyridylidene)-N"-phenylguanidine] | 5.36 ** mmol/litre |
| CC1CN(C(=Nc2ccccc2)N=c2ccccn2C)CC(C)O1 (stereo not shown) [Example 3, N-(1,2-dihydro-1-methyl-2-pyridylidene)-N'-phenyl-4-(2,6-dimethylmorpholine)-carboxamidine] | 3.48 mmol/L |
| Cc1ccc(=NC(=Nc2ccccc2)N2CCOCC2)n(C)c1 [Example 14, N-(1,2-Dihydro-1,5-dimethyl-2-pyridylidene)-N'-phenyl-4-morpholinecarboxamidine] | 2.53 **** mmol/litre |
| Cn1cc(Br)ccc1=NC(=Nc1ccccc1)N1CCOCC1.I [Example 12, N-(5-bromo-1,2-dihydro-1-methyl-2-pyridylidene)-N'-phenyl-4-morpholinecarboxamidine hydroiodide] | 3.52 *** mmol/litre |
| COC(=O)c1ccc(=NC(=Nc2ccccc2)N2CCOCC2)n(C)c1.I [Example 13, N-(5-carbomethoxy-1,2-dihydro-1-methyl-2-pyridylidene)-N'-phenyl-4-morpholinecarboxamidine hydroiodide] | 3.36 ** mmol/litre |
| CCN(CC)C(=Nc1ccccc1)N=c1c(C)cccn1C.I [Example 10, N,N-diethyl-N'-(1,2-dihydro-1,3-dimethyl-2-pyridylidene)-N"-phenylguanidine hydroiodide] | 5.54 *** mmol/litre |
